Assay results as given in patent US20130052281A1, “NOVEL COMPOUNDS” (Takeda Pharmaceutical Company Limited, priority 2011, published 2013).

Target: Human DAAO enzyme (Homo sapiens, UniProt P14920)
Test: In Vitro DAAO Enzyme Assay (Amplex Red detection of H2O2 from D-Serine)
Assay type: biochemical
Conditions: inhibition of DAAO activity in the presence of 10 mM D-Serine; 60 minutes at 25° C.; ten point dose-response
Description: The Km of D-Serine was measured for each enzyme batch to maintain consistency; this Km was used in subsequent assays.
On the day of the assay compounds were serially diluted in DMSO before being diluted 1:20 with assay buffer (20 mM Tris ph 7.4). […] Finally 5 μl ‘Amplex’ red reagent (Invitrogen) was added to all wells as per manufacturer's protocol. The plate was incubated for 60 minutes in the dark at 25° C. and the fluorescence in each well was measured in the Envision plate reader.
Concentration response curves were generated using the average of duplicate wells for each data point and analyzed using non-linear regression and four parameter curve fit.

Human DAAO enzyme, sequence (P14920 whole entry): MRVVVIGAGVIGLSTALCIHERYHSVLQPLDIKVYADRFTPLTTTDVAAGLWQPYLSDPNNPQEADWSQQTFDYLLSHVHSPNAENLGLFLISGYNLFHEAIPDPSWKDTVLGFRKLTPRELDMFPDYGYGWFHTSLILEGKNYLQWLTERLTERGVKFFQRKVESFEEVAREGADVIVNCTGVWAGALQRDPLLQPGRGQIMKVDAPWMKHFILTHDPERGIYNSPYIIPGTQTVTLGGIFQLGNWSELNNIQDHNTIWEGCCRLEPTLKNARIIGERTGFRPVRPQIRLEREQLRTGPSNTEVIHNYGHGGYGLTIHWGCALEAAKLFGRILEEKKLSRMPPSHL

SMILES | IC50
O=c1[nH]nc(CCc2cccc(OC(F)(F)F)c2)cc1O [Example 10, 4-Hydroxy-6-{2-[3-(trifluoromethoxy)phenyl]ethyl}pyridazin-3(2H)-one] | 22 nM
O=c1[nH]nc(CCc2cncc(C(F)(F)F)c2)cc1O [Example 12, 4-Hydroxy-6-{2-[5-(trifluoromethyl)pyridin-3-yl]ethyl}pyridazin-3(2H)-one] | 23 nM
